Source: article PMC11385767 (Heliyon, 2024)
“Also recorded” adds a separate entry of the source. No end group written: not given here.

Tests used:
[1] = target: HLA-A*11:01 on TAP-deficient T2 cell line (Homo sapiens, UniProt P04439, A114D/D185E/E176A/F33Y/L180Q/S129P/T187R); format: cell-based
HLA-A*02:01 = HLA-A*02:01 (Homo sapiens, UniProt P04439, D140Y/D185E/D98H/E176V/E277Q/G131W/G231S/I119V/I121R/I166T/I218V/L300P/L318F/N151K/N90K/P208A/P217A/Q86G/Q94H/R138H/R169H/T345S); conditions: ref [20]; cited from earlier work

| Sequence | binding ability on T2 cell line (in words, rank) [1] | binding to HLA-A*02:01 (in words) (HLA-A*02:01) |
| --- | --- | --- |
| VINTTDHLK [VINTTDHLK] | VITTDHLK ≈ STIHSIQY > KLIMTQVSK > TTDHLKFSK; also recorded: excellent binding affinity |  |
| KLIMTQVSK [KLIMTQVSK] | VITTDHLK ≈ STIHSIQY > KLIMTQVSK > TTDHLKFSK; also recorded: moderate binding affinity |  |
| TTDHLKFSK [TTDHLKFSK] | VITTDHLK ≈ STIHSIQY > KLIMTQVSK > TTDHLKFSK; also recorded: lowest binding affinity |  |
| STIHDSIQY [STIHDSIQY] | no significant difference in IC50 value; also recorded: excellent binding affinity |  |
| FVGEFFTDV |  | positive binding |
